Source: US6815187B1, “Stimulation of angiogenesis via syndecan-4 cytoplasmic domain signaling pathway” (Beth Israel Deaconess Medical Center, priority 1998, dated 2004)
Where no end group is shown, it is not given here. [ ]: non-standard residue; d: D form. pS = N[C@@H](COP(=O)(O)O)C(=O)O

What was measured:
[1] = tested on: syndecan-4 cytoplasmic tail phosphorylation in NIH 3T3 cells; assay: Syndecan-4 cytoplasmic tail phosphorylation stoichiometry (32P/35S double labeling) in NIH 3T3 cells; type: cell-based
Description: Confluent NIH 3T3 cells were washed twice in phosphate-free DMEM and incubated for 24 h at 37° C. in a 5% CO2 humidified atmosphere in phosphate-free DMEM supplemented with 0.5% fetal bovine serum. The cells were washed twice with methionine, phosphate, and serum-free DMEM and incubated for 6 h in the same medium, supplemented with 400 μCi/ml [^35S]methionine (New England Nuclear, Boston, Mass.). At the onset of the last 2 h of incubation, 500 μCi/ml [^32P]orthophosphoric acid (New England Nuclear) was added to the medium.
Cells were washed with PBS ([…], 10 mM Na2HPO4, 3.6 mM KCl, 1.8 mM KH2PO4, pH 7.4), dissociated by 0.05% trypsin, 0.5 mM EDTA (Life Technologies, Inc.) in PBS for 10 min at 22° C., and sedimented by 2000×g centrifugation at 4° C. for 5 min. The syndecan-4 ectoplasmic domain was immunoprecipitated from 0.5 ml of medium collected before cell trypsinization or from 0.5 ml of supernatant of the latter centrifugation. The cytoplasmic tail was immunoprecipitated from the pellet after a 30-min extraction at 4° C. in 0.5 mil of lysis buffer supplemented with 100 μM leupeptin, 2 μM pepstatin, and 10 nM okadaic acid (Sigma). Total protein concentrations in each fraction were measured by spectrophotometry at 595 nm (DU 640, Beckman, Fullerton, Calif.) of an aliquot developed for 10 min in Protein Assay Dye Reagent (Bio-Rad). Bovine serum albumin (Life Technologies Inc.) was used as standard.
The medium, trypsinization supernatant, and extracted pellet fractions were precleared by adding 30 μl of 1:1 (v/v) slurry of protein G plus/protein A-agarose beads (Calbiochem), and 10 μl of nonimmune rabbit serum (Life Technologies Inc.). After a 2-h incubation at 4° C. in rotating tubes, the beads were sedimented by 5 min, 5000×g centrifugation at 4° C. The cleared samples were supplemented with 40 μl of 1:1 (v/v) slurry of the above beads and 10 μl of rabbit polyclonal antiserum (syndecan-4 ectoplasmic domain-specific antiserum was added to the medium and trypsinization supernatant samples, and cytoplasmic tail-specific antiserum was added to the extracted pellet fraction) and incubated in rotating tubes for 18 h at 4° C. The agarose beads were collected by centrifugation as above, washed three times in heparinase digestion buffer, and resuspended in 40 μl of digestion buffer, and the GAG chains of the bead-attached ectoplasmic domains from the medium and from the trypsinization-supernatant were cleaved as above. The ectoplasmic and cytoplasmic tails were dissociated from the beads by a 10-min incubation in SDS buffer at 95° C., and the beads were sedimented by a 5 min, 13,000×g centrifugation at 4° C.
Immunoprecipitated, full-length syndecan-4 core proteins were resuspended in Laemmli sample buffer (2% SDS, 10% glycerol), 0.5% P-mercaptoethanol, 0.004% bromphenol blue, 50 mM Tris-HCl, pH 6.8) resolved by SDS-PAGE on a 10% slab gel, and transferred to a polyvinylidene fluoride (PVDF) membrane (Immobilon-P, Millipore, Bedford, Mass.) for 12 h at 25 mA in 150 mM glycine, 20 mM Tris-HCl, and 20% methanol. The ectoplasmic and cytoplasmic syndecan-4 domains were resolved on a 15% slab gel and transferred for 90 min at 20 mA in 150 mM glycine, 20 mM Tris-HCl, and 30% methanol to a low porosity PVDF membrane (Immobilon-P^SQ, Millipore). Radiolabeled bands detected by exposure to film (XAR, Kodak, Rochester, N.Y.) were excised, and their radioactivity was measured in both the ^32P and ^35S spectra by scintillation counting (LS 6000IC, Beckman, Fullerton, Calif.). In some cases, the same membranes were used for immunoblotting prior to band excision.
To determine the stoichiometry of the basal phosphorylation of syndecan-4, as well as the effect of bFGF and of other compounds on this phosphorylation, the cells were doubly labeled with [^35S]methionine and [^32P]orthophosphoric acid. […]

PKC = details: commercially available PKC inhibitors; cited from earlier work
recombinant PKCα = molecular target: T1, recombinant PKCα (Homo sapiens, UniProt P17252); assay: PKC in vitro assay, phosphorylation of PKCβ1 optimal substrate peptide by recombinant PKCα; type: biochemical; details: 50 μM peptide with cofactors PS, DAG and calcium
T1 construct: made in house
Description: Samples (30 μl) consisted of PKCβ1 optimal substrate peptide (100 μM) either with or without syndecan-4 cytoplasmic tail peptides S4c or S4c-P (both at 50 μM) in 25 mM Tris-HCl (pH 7.4), […], 1 mM DTT, 50 μM ATP, and 5 μCi [y-^32P]ATP (New England Nuclear, Boston, Mass.). In some assays the buffer was supplemented with either PIP2 (50 μM), or PS (4 μg/ml), diolein (6.2 μg/ml), and 0.2 mM CaCl2. In PKCδ assays the buffer was supplemented with PS and diolein as above, and with 0.5 mM EGTA. Upon addition of either PKCα (120 ng/ml) or PKCδ (430 ng/ml), samples were incubated at 30° C. for 10 min, and reactions were stopped by boiling in Laemmli sample buffer for 4 min. The samples were resolved on 16.5% Tris-tricine gels (BioRad Laboratories), transferred to PVDF membranes and detected as described previously in Experimental Series I.
To assess the effect of Ser^183 phosphorylation on syndecan-4-dependent PKC activation, the ability of the 28 amino acid-long syndecan-4 cytoplasmic tail peptide, S4c, and S4c-P peptides to activate recombinant PKCα was studied using the PKCβ1 optimal substrate peptide in an in-vitro assay. The results are graphically illustrated by FIG. 5.
Densitometry histograms of autoradiographic images of PKC β1 optimal substrate peptide were resolved on 16.5% Tris-tricine gels and then transferred to PVDF membranes (n=3; bars denote SD). […]

[2] = PIP2 binding assay (filtration of PIP2 micelle-bound peptide)
Description: PIP2 (from Sigma, dissolved at 2 mg/ml in 20 parts CHCl3, 9 parts MeOH, 1 part H2O, 0.1 part 1N HCl) was dried under N2 and sonicated for 5 min in ice-cold H2O at a final concentration of 1 mg/ml. Syndecan-4 cytoplasmic tail peptides S4c or S4c-P (100 μM) were incubated on ice for 30 min with the indicated concentrations of PIP2 in 10 mM Tris-HCl (pH 7.5), 75 mM KCl, 0.5 mM DTT, in aliquots of 100 μl. The samples were layered on 30 kDA-molecular-mass cutoff cellulose filters (Ultrafree-MC, Millipore, Bedford, Mass.), and spun at 2000 g for 1 min, following the method described in Haarer et al., Mol. Cell Biol. 13: 7864-7873 (1993). The samples (40 μl of each in Laemmli sample buffer, 2% SDS, 10% glycerol, 0.5% β-mercaptoethanol, 0.004% bromophenol blue, 50 mM Tris-HCl, pH 6.8) were resolved by SDS-PAGE on 16.5% Tris-tricine gels (BioRad Laboratories, Hercules, Calif.). Gels were stained with Coomassie Brilliant Blue G-250 (BioRad Laboratories), and images of the stained bands were digitized (DeskScan II on ScanJet 4c, Hewlett Packard) and quantitated by densitometry (ImageQuant, Molecular Dynamics, Sunnyvale, Calif.).
Both the oligomerization and PKCα activation capacities of the cytoplasmic tail of syndecan-4 have been reported as depending on the presence of PIP2 [Oh et al., J. Biol. Chem. 272: 11805-11811 (1997); Lee et al., J. Biol. Chem. 273: 13022-13029 (1998)]. It was of interest, therefore, to determine whether the phosphorylation of Ser^183 in the cytoplasmic tail of syndecan-4 affects the affinity of the tail to PIP2. To this end, the in-vitro binding between PIP2 micelles and S4c or S4c-P peptides was compared using a filtration assay. The filter retains the PIP2 micelle-bound peptide, while the unbound peptide passes through it. The results are illustrated by FIGS. 7A and 7B respectively.
Samples were resolved on 16.5% Tris-tricine gels. FIG. 7B graphically illustrates the densitometry results of the gel bands of the S4c (black bars) and S4c-P (white bars) peptides shown in FIG. 7A.

[3] = tested on: syndecan-4 expression in NIH 3T3 cells; assay: Syndecan-4 expression level by immunoblotting and densitometry of cell lysates; type: cell-based
Description: After blocking in PBS containing 5% nonfat milk powder for 1 h at 22° C., the membrane was incubated in the same solution supplemented with 1:3000 (v/v) dilution of either ectoplasmic or cytoplasmic tail-specific antiserum for 2 h, washed with PBS, and incubated for 1 h in 5% milk powder-PBS containing 1:2000 diluted goat anti-rabbit IgG conjugated to peroxidase (Vector Laboratories, Burlingame, Calif.). The secondary antibody was detected, after […] PBS wash, by chemiluminescence (Western Blot, Chemiluminescence Reagent Plus, New England Nuclear). Molecular weights were estimated by comparison with the electrophoretic mobility of standards (Kaleidoscope Prestained Standards, Bio-Rad). Densitometry of digitized images of immunoprobed membranes (ScanJet 4c, Hewlett Packard) was performed using ImageQuant software (Molecular Dynamics, Sunnyvale, Calif.).
If, contrary to our assumption, the incorporation efficiency of ^35S is higher than that of ^32P, the bFGF-induced decrease in syndecan-4 phosphorylation could solely result from bFGF up-regulation of syndecan-4 synthesis. […] The syndecan-4 bands, which similar to immunoprecipitated samples (FIG. 2A) ran at an approximate molecular mass of […], were detected with the antiserum specific to the ectoplasmic domain; and the amount of protein in each band was quantified by densiometry. […]

In the case of Cn1c2ccccc2c2c3c(c4c5ccccc5n(CCC#N)c4c21)CNC3=O [Gö 6976], the “phosphorylation of syndecan-4” value ([1]; Gö 6976 up to 100 nM in PMA (0.5 μM)-treated cells) is listed as “not reduced” and the IC50 (PKC) is listed as 8 nM.
In the case of CCCCCCCCCCCCCC(=O)O[C@@H]1[C@@H](C)[C@@]2(O)[C@@H](C=C(CO)C[C@]3(O)C(=O)C(C)=C[C@@H]23)[C@@H]2C(C)(C)[C@]12OC(C)=O [PMA, Phorbol-12-myristate-13-acetate], the “syndecan-4 phosphorylation relative to basal level” value ([1]; 0.5 μM PMA) is reported as ~3 fold and the “stoichiometry of the phosphorylation of syndecan-4” value ([1]; 0.5 μM PMA during last 5 h of serum-free starvation, n=3) is reported as 0.81±0.33 mol Pi/mol syndecan-4.
For COc1ccc2c(c[n+](C)c3c4cc5c(cc4ccc23)OCO5)c1OC [chelerythrine], the “phosphorylation of syndecan-4” value ([1]; 6 μM chelerythrine together with 0.5 μM PMA) was “undetectable level” and the “concentration above which syndecan-4 phosphorylation started to decline” value ([1]; applied together with 0.5 μM PMA) was “above 1.5 μM”.
In the case of Calphostin, the IC50 (PKC) is listed as 50 nM.
For “S4c-P: similar syndecan-4 cytoplasmic tail peptide with a phosphorylated Ser (RMKKKDEG[pS]YDLGKKPIYKKAPTNEFYA)”, the “effect on catalytic activity of PKCα” value (recombinant PKCα) was “neither the S4c, nor the S4c-P peptides had any additional effect”, the Kd ([2]; calculated from densitometry of filter flow-through, FIG. 7, read-out: dissociation constant (Kd) for PIP2) was 232000 nM and the “peptide passed through the filter” value ([2]; peptide:PIP2 molar ratio of 1:2) was 50%. For the same compound, the “peptide retained by the filter” value ([2]; peptide:PIP2 molar ratio of 2:1, 100 μM peptide) was “none”.
In the case of basic fibrocyte growth factor [bFGF], the “level of syndecan-4 expression, % of control cells” value ([3]; 10 ng/ml bFGF) is reported as 85%, the “level of syndecan-4 expression, % of control cells” value ([3]; 30 ng/ml bFGF) is reported as 93% and the “phosphorylation stoichiometry of syndecan-4” value ([1]; 10 ng/ml bFGF during last 5 h of serum-free starvation, n=5, basal 0.31±0.12) is reported as 0.16±0.02 mol Pi/mol syndecan-4. The “phosphorylation stoichiometry of syndecan-4” value ([1]; 20 and 30 ng/ml bFGF, n=3) was 0.12±0.06 mol Pi/mol syndecan-4.
With calyculin the “syndecan-4 phosphorylation in bFGF-treated cells” value ([1]; 5 nM calyculin applied with 10 ng/ml bFGF) was “basal level” and the “increase of syndecan-4 phosphorylation relative to basal level” value ([1]; 5 nM calyculin in the absence of bFGF) was “more than 2.5 fold”.
